In series [1] the test system is E. faecalis. Nature of the series: Antibacterial activity evaluation (turbidity, OD600). The class given is cell-based, Enterococcus faecalis (JCM7783). As to conditions: E. faecalis JCM7783. In outline:
(§1)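 Inocula set to 1.0 McFarland (enterococci) or 0.5 McFarland (S. aureus, E. coli), then diluted 1:200 in Mueller–Hinton broth. Growth read as OD600; EC50 given with standard error.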

Series [2] concerns S. aureus. The description is as above. Format: cell-based, Staphylococcus aureus (ATCC29213). The following applies: S. aureus ATCC29213. The essentials:
as §1

For series [3] the following is noted: cited from earlier work.
The subject of series [4] is E. coli. Nature of the series: Antibacterial activity evaluation (turbidity, OD600). The class given is cell-based, Escherichia coli (ATCC25922). As to conditions: E. coli ATCC25922. In outline: as §1
In series [5] the test system is E. faecium. Described as above. Format: cell-based, Enterococcus faecium (JCM5804). The following applies: for 50% effective concentration (EC50): growth of E. faecium. The essentials:
as §1

Series [6] deals with E. faecium. Nature of the series: Antibacterial assay with an excess concentration of biomolecules (Ser, Gly, inosine, dT, FA). The class given is cell-based, Enterococcus faecium (JCM5804).
Series [7] deals with efmSHMT (Enterococcus faecium, UniProt I3U4H4, M1V). In words: biochemical. Format: binding. How it is done: After adding Me-THF, the efmSHMT solution was incubated for 30 min at room temperature. The optical density at 500 and 600 nm (OD500 and OD600) were then measured using a nanodrop spectrophotometer[24],[25]. OD600 was used as the background. After detection, each concentration of inhibitor was added to the efmSHMT solution and incubated for 30 min at room temperature. OD500 and OD600 were measured. The relative OD500 intensity was calculated as relative OD500 = (OD500 – OD600)/(MAXOD500 – OD600), where MAXOD500 is the average OD500 value in the presence of 1000, 2000 and 4000 μM Me-THF without inhibitors. […] Here, IC50 is the concentration of inhibitor added to the efmSHMT solution and [Me-THF] is the EC50 in the presence of the inhibitor concentration. [EC50 without inhibitor] is the EC50 of Me-THF in the absence of the inhibitor.
Chain of efmSHMT (Enterococcus faecium, UniProt I3U4H4, M1V) (I3U4H4 whole entry M1V): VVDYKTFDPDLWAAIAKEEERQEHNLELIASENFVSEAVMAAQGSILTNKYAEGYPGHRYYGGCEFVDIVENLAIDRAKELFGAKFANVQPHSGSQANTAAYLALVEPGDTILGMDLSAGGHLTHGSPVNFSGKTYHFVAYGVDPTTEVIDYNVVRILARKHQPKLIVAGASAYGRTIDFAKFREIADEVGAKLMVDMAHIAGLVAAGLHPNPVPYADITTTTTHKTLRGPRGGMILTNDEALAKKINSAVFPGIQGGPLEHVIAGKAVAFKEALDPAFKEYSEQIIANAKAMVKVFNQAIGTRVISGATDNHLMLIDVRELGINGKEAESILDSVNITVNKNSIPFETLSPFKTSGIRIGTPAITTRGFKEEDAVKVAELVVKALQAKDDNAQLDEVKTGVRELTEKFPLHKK

The subject of series [8] is efmSHMT. Format: binding, Enterococcus faecium. As to conditions: DSF; final drug concentration 50 μM. On the procedure: Protein samples were prepared as 20 μL aliquots containing 0.1 mg/mL protein (efmSHMT/ecSHMT), 1 μL of the ligand in DMSO (final drug concentration, 50 μM) and 2% or 4% SYPRO Orange (Invitrogen, MA, USA). […] Melting points were evaluated as the half-point of the maximum intensity of each curve.

Series [9] deals with E. faecium. Nature of the series: Bacterial viability assay (Microbial Viability Assay Kit-WST, OD450). As to conditions: for EC50: Enterococcus faecium. The class given is cell-based, Enterococcus faecium. On the procedure: Living E. faecium were determined using the Microbial Viability Assay Kit-WST (DOJINDO, Tokyo, Japan). […] Positive control wells included bacteria seeded into MH broth without compounds, and the negative control wells contained MH broth only. […] Five microlitres of the colouring reagent were added to each well of the 96-well plate every 2 h after starting incubation with each compound.

In series [10] the target is T1, ecSHMT (Escherichia coli, UniProt P0A825).
T1 construct: His tag (followed by PreScission protease cleavage site) (N, cleaved yes); made in house; host or cells: E. coli BL21(DE3)
T1 sequence (P0A825 whole entry): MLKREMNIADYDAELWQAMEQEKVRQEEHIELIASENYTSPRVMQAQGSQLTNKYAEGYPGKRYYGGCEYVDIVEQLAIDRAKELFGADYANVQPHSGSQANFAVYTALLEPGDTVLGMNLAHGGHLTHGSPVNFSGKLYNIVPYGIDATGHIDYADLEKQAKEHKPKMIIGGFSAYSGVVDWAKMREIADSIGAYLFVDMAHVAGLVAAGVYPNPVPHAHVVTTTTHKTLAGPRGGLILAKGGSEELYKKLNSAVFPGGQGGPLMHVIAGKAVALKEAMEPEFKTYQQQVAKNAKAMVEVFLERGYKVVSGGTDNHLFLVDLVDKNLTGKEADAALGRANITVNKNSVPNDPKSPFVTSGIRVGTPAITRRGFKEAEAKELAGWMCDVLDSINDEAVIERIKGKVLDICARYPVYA
Nature of the series: Thermal stability analysis using differential scanning fluorimetry (DSF). Format: binding, E. coli. The following applies: final drug concentration 50 μM. On the procedure: Protein samples were prepared as 20 μL aliquots containing 0.1 mg/mL protein (efmSHMT/ecSHMT), 1 μL of the ligand in DMSO (final drug concentration, 50 μM) and 2% or 4% SYPRO Orange (Invitrogen, MA, USA). Measurements were taken using StepOnePlus real-time PCR (Thermo Fisher Scientific) (temperature increment, 1.8%; range, 20–95 °C). Melting points were evaluated as the half-point of the maximum intensity of each curve.
On the technique in general: DSF heats the sample and reads unfolding from a dye or from intrinsic fluorescence.

Series [11] deals with the molecule itself. Nature of the series: dynamic light scattering; 25 °C, Zetasizer NanoS, efmSHMT at 0.5 mg/mL, in triplicate; hydrodynamic radius 4.209 nm.

Like-named read-outs stand apart in the source and are kept apart here.

The term Ki denotes a measure of affinity in units of concentration, obtained from inhibition or displacement. By stoichiometry N is commonly meant a count of units in the complex or per binding partner.

In the case of `Cc1[nH]nc2c1C(c1cc(CO)cc(-c3ccccc3)c1)(C(C)C)C(C#N)=C(N)O2` (centres unmarked) [SHIN-1], the “pEC50 ± S.E.” value in [1] is given as below 5.7; in series [2] it was below 5.7; in series [4] it was below 5.7; in [5] (E. faecium JCM5804), 9.3 ± 0.1; in series [6] (E. faecium JCM5804, 1 mM Inosine), 8.3 ± 0.3; in series [6] (E. faecium JCM5804, 1 mM deoxythymidine) it was below 5.7. Moreover, the “pEC50 ± S.E.” value is reported as 8.9 ± 0.0 in [6] (E. faecium JCM5804, 10 mM Glycine); 8.5 ± 0.1 in series [6] (E. faecium JCM5804, 100 mM Serine); below 5.7 in series [6] (E. faecium JCM5804, 0.1 M folate). In addition, the EC50 was above 2000 nM in series [1] (read-out: EC50); above 2000 nM in series [2] (read-out: EC50); above 2000 nM in series [4] (read-out: EC50); 0.5 nM in series [5] (E. faecium JCM5804, read-out: EC50); 5.2 nM in [6] (E. faecium JCM5804, 1 mM Inosine, read-out: EC50); above 2000 nM in series [6] (E. faecium JCM5804, 1 mM deoxythymidine, read-out: EC50). Further, the EC50 was 1.2 nM in series [6] (E. faecium JCM5804, 10 mM Glycine, read-out: EC50); 3.4 nM in series [6] (E. faecium JCM5804, 100 mM Serine, read-out: EC50); above 2000 nM in [6] (E. faecium JCM5804, 0.1 M folate, read-out: EC50). In addition, the pharmacokinetic properties result in [3] is on record as “lacked pharmacokinetic properties suitable”. Further, the half-life result in series [3] (response letter, ref (6) García-Cañaveras et al. 2021) was “too short to use in vivo”. Moreover, the “50% effective concentration (EC50)” value in series [5] (order of magnitude given) is given as 10^–10 to 10^–11 M.
Regarding `Cc1n[nH]c2c1[C@](c1cc(CO)cc(-c3ccccc3)c1)(C(C)C)C(C#N)=C(N)O2` [(+)-SHIN-1], the inhibitory constant (Ki) in series [7] (Ki, 2.5 μM efmSHMT, 10 mM Gly and 100 μM Ser, Cheng-Prusoff) is 8.8 nM; in series [7] (Ki, 5 μM efmSHMT, 10 mM Gly and 100 μM Ser, Cheng-Prusoff) it was 28 nM; in series [7] (actual Ki (bound, as the assay's efmSHMT detection limit is 2.5 μM), efmSHMT), below 8.8 nM; in series [7] (pKi ± pSE, 2.5 μM efmSHMT, 10 mM Gly and 100 μM Ser) it was 7.94 nM; in series [7] (pKi ± pSE, 5 μM efmSHMT, 10 mM Gly and 100 μM Ser), 25.1 nM. In addition, the EC50 in [1] (Enterococcus faecalis, read-out: EC50) is above 2000 nM; in [1] (Enterococcus faecalis, read-out: pEC50 ± S.E. (converted)), above 2000 nM; in series [2] (Staphylococcus aureus, read-out: EC50), above 2000 nM; in [2] (Staphylococcus aureus, read-out: pEC50 ± S.E. (converted)) it was above 2000 nM; in series [9] (relative bacterial viability after 14 h incubation) it was 0.23 nM; in [9] (value of the response letter (earlier manuscript version)), 0.21 ± 0.13 nM. Also, the EC50 in series [4] (Escherichia coli, read-out: EC50) was above 2000 nM; in series [4] (Escherichia coli, read-out: pEC50 ± S.E. (converted)), above 2000 nM; in series [5] (Enterococcus faecium, read-out: 50% effective concentration (EC50), growth of E. faecium, order of magnitude given), 0.01 nM; in series [5] (Enterococcus faecium, E. faecium JCM5804, read-out: EC50) it was 0.031 nM; in series [5] (Enterococcus faecium, E. faecium JCM5804, read-out: pEC50 ± S.E. (converted)) it was 0.0316 nM; in [5] (Enterococcus faecium, E. faecium, value of the response letter (earlier manuscript version), read-out: EC50 (turbidity)), 0.044 ± 0.028 nM. Further, the EC50 in [6] (Enterococcus faecium, JCM5804, E. faecium JCM5804, 1 mM Inosine, read-out: EC50) is 0.36 nM; in [6] (Enterococcus faecium, JCM5804, E. faecium JCM5804, 1 mM Inosine, read-out: pEC50 ± S.E. (converted)) it was 0.398 nM; in series [6] (Enterococcus faecium, JCM5804, E. faecium JCM5804, 1 mM deoxythymidine, read-out: EC50) it was above 2000 nM; in series [6] (Enterococcus faecium, JCM5804, E. faecium JCM5804, 1 mM deoxythymidine, read-out: pEC50 ± S.E. (converted)), above 2000 nM; in series [6] (Enterococcus faecium, JCM5804, E. faecium JCM5804, 10 mM Glycine, read-out: EC50), 0.12 nM; in series [6] (Enterococcus faecium, JCM5804, E. faecium JCM5804, 10 mM Glycine, read-out: pEC50 ± S.E. (converted)), 0.126 nM. Besides, the EC50 is 0.43 nM in [6] (Enterococcus faecium, JCM5804, E. faecium JCM5804, 100 mM Serine, read-out: EC50); 0.398 nM in series [6] (Enterococcus faecium, JCM5804, E. faecium JCM5804, 100 mM Serine, read-out: pEC50 ± S.E. (converted)); above 2000 nM in series [6] (Enterococcus faecium, JCM5804, E. faecium JCM5804, 0.1 M folate, read-out: EC50); above 2000 nM in series [6] (Enterococcus faecium, JCM5804, E. faecium JCM5804, 0.1 M folate, read-out: pEC50 ± S.E. (converted)). In addition, in series [8], the “ΔTm (thermal stability of efmSHMT)” value amounted to 7 °C. Moreover, the “mode of antibacterial action (time-dependent bacterial viability)” value in series [9] is “bacteriostatically”. Further, the “binding to ecSHMT (DSF)” value in [10] is “bound to ecSHMT”. Further, in series [5] (order of magnitude given), the “50% effective concentration (EC50)” value is on record as 10^–10 to 10^–11 M.

B1: Enterococcus faecium serine hydroxymethyltransferase (enzyme)
chain: VDYKTFDPDLWAAIAKEEERQEHNLELIASENFVSEAVMAAQGSILTNKYAEGYPGHRYYGGCEFVDIVENLAIDRAKELFGAKFANVQPHSGSQANTAAYLALVEPGDTILGMDLSAGGHLTHGSPVNFSGKTYHFVAYGVDPTTEVIDYNVVRILARKHQPKLIVAGASAYGRTIDFAKFREIADEVGAKLMVDMAHIAGLVAAGLHPNPVPYADITTTTTHKTLRGPRGGMILTNDEALAKKINSAVFPGIQGGPLEHVIAGKAVAFKEALDPAFKEYSEQIIANAKAMVKVFNQAIGTRVISGATDNHLMLIDVRELGINGKEAESILDSVNITVNKNSIPFETLSPFKTSGIRIGTPAITTRGFKEEDAVKVAELVVKALQAKDDNAQLDEVKTGVRELTEKFPLHKK
modifications: pyridoxal 5'-phosphate (PLP) covalently linked as a Schiff's base to K226 (in the efmSHMT/(+)-SHIN-1 structure; relocated to Ser or Gly in the ternary complexes)
notes: theoretical monomer molecular weight 44.7 kDa; A few vector residues may remain at the N-terminus after PreScission cleavage; also called efmSHMT; E. faecium SHMT; source: E. coli BL21(DE3), purified (HisTrap, PreScission digestion, HiTrap Q, Superdex 75); not shown: His tag, N-terminal, cleaved
Consider B1, for which the “stoichiometry N” value in series [11] came out at 2.

Values taken from PMC9223267, “Serine hydroxymethyltransferase as a potential target of antibacterial agents acting synergistically with one-carbon metabolism-related inhibitors” (Communications Biology, 2022).
